Key:
[1] = tested on: Melanocytes (B16 cell line); assay: Melanogenesis inhibition assay (melanin level and cellular proteins); type: cell-based; settings: 3 days incubation; for Melanin level: B16 cells, OD 475 nm
Method: Melanocytes (B16 cell line) are inoculated in standard medium of cell culture with fetal calf serum (FCS). After an incubation of 3 days at 37° C. and CO2=5%, growth medium is exchanged for standard medium with a range of concentrations for the compound to be tested and a control without ingredient. After an incubation of 3 days, the level of melanin is measured by recording the optical density at 475 nm. After washing the cells by a balanced salt, and homogenization in a solution of 0.1 M NaOH, the number of viable cells is determined by the level of cellular proteins (Bradford's method).
The results are expressed in % against control (cell culture medium without compound) as a mean on 1 to 3 assays, each in triplicate.

mushroom tyrosinase = assay: Mushroom tyrosinase inhibition assay; type: biochemical; settings: DOPA substrate, pH 6.8
Method: In the melanin biosynthesis pathway, tyrosinase is a key enzyme catalyzing the initial steps: the oxidation of tyrosine into dihydroxyphenylalanine (DOPA) and of DOPA into Dopaquinone. In phosphate buffer at pH 6.8, DOPA is mixed with a range of concentration of the compound to be tested, and a control without compound. After addition of mushroom tyrosinase, oxidation of DOPA is recorded by measuring OD at 475 nm during 30 sec. The % of tyrosinase inhibition is expressed in % against control as a mean of 2-3 assays.

| SMILES | Melanin level ([1]; dose 0.001 % (w/v)) [%/control] | Melanin level ([1]; dose 0.003 % (w/v)) [%/control] | Protein level (rate of cellular proteins, viable cells by Bradford's method) ([1]; dose 0.001 % (w/v)) [%/control] | Protein level (rate of cellular proteins, viable cells by Bradford's method) ([1]; dose 0.003 % (w/v)) [%/control] | % of tyrosinase inhibition (mushroom tyrosinase; dose 0.0001 % (w/v)) [%] | % of tyrosinase inhibition (mushroom tyrosinase; dose 0.001 % (w/v)) [%] | % of tyrosinase inhibition (mushroom tyrosinase; dose 0.01 % (w/v)) [%] | Melanin level ([1]; dose 0.01 % (w/v)) [%/control] | Protein level (rate of cellular proteins, viable cells by Bradford's method) ([1]; dose 0.01 % (w/v)) [%/control] |
| --- | --- | --- | --- | --- | --- | --- | --- | --- | --- |
| CN(N)C(=O)Nc1ccccc1 [1-amino-1-methyl-3-phenylurea] | 92 | 88 | 102 | 99 | – | – | – | – | – |
| Cc1ccc(NC(=O)NN)c(C)c1 [1-amino-3-(2,4-dimethylphenyl)urea] | 98 | 87 | 103 | 99 | – | – | – | – | – |
| NNC(=O)Nc1ccccc1 [1-amino-3-phenylurea] | 79 | 47 | 95 | 94 | 31 | 55 | 89 | 19 | 104 |

— patent publication US20110236326A1, “Skin Whitener” (Cognis IP Management GmbH, priority 2008, published 2011)
